Experiment [1] relates to Candida albicans. Briefly: Series dilution test in vitro, Candida albicans. The experiment is classed as cell-based. As to the method: (§1) 1. DETERMINATION OF THE ANTI-MYCOTIC ACTION SPECTRUM IN VITRO BY THE SERIES DILUTION TEST.
(§2) Description of the Experiment
(§3) The nutrient substrates used were Sabourauds' milieu d'epreuve for dermatophytes and mould fungi and meat broth-glucose bouillon for blastomyces and biphase fungi. The incubation temperature was 28° C. and the incubation time was 24 to 96 hours.

In another experiment the test system is Aspergillus niger. The experiment can be described thus: Series dilution test in vitro, Aspergillus niger. The format is cell-based. Particulars: for MIC: Aspergillus niger, read-out: Minimum inhibitory concentration (MIC). As for the experimental part:
as §1, §2, §3

The next experiment deals with Penicillium commune. The experiment can be described thus: Series dilution test in vitro, Penicillium commune. The format is cell-based. Particulars: read-out: Minimum inhibitory concentration (MIC). As for the experimental part:
as §1, §2, §3

A further experiment concerns Microsporon felineum. The experiment can be described thus: Series dilution test in vitro, Microsporon felineum. The format is cell-based. Particulars: 28° C., 24 to 96 hours; read-out: Minimum inhibitory concentration (MIC). As to the method: as §1, §2, §3
Experiment [2] concerns Trichophyton mentagrophytes. Briefly: Series dilution test in vitro, Trichophyton mentagrophytes. The format is cell-based. As to conditions: for MIC: Trichophyton mentagrophytes, read-out: Minimum inhibitory concentration (MIC). As for the experimental part:
as §1, §2, §3

In experiment [3] the test system is Candida albicans. The experiment can be described thus: Candidosis of mice. The format is in vivo, Mice of Type SPF-CF1. As to conditions: 2 × 100 mg/kg orally, one hour before and seven hours after infection, survivors on 6th day. As to the method:
as §2
Mice of Type SPF-CF1 were intravenously infected with 1-2 × 10^6 logarithmically growing Candida cells suspended in physiological sodium chloride solution.
One hour before and seven hours after infection the animals were treated orally with 2 × 100 mg of the preparations/kg of body weight.
Untreated animals died of the infection 3 to 6 days after infection. The survival rate on the 6th day after infection was about 5% in the case of untreated control animals.

Experiment [4] relates to Trichophyton mentagrophytes. The experiment can be described thus: Oral administration on Quinckeanum trichophytosis of white mice. The experiment is classed as in vivo. Set-up: key to the marks not given beside the values. As to conditions: 100 mg/kg orally twice daily up to the eighth day of the infection. As to the method: b. Action, on Oral Administration, on Quinckeanum Trichophytosis of White Mice
It was possible to suppress the development of the Quinckeanum infection in mice with doses of 100 mg/kg of body weight given orally twice daily up to the eighth day of the infection.

The test system of experiment [5] is Trichophyton mentagrophytes. Briefly: Topical application in experimental trichophytosis of guinea pigs. The format is in vivo. On the set-up: key to the marks not given beside the values. As to conditions: 1% strength solution applied locally for 11 to 14 days.
Description: a. Topical Application in Experimental Trichophytosis of Guinea Pigs (Pathogen: Trichophyton metagrophytes)
as §2
A 1% strength solution of the active compounds in a dimethylsulphoxide/glycerine/water mixture (1:3:6) or in polyethylene glycol 400 was applied locally for 11 to 14 days after the trichophytosis had been produced experimentally.

The mark [6] stands for this setting: n.s. (no serum added), 28° C., 24 to 96 hours, read-out: Minimum inhibitory concentration (MIC).
The mark [7] stands for this setting: w.s. (with 30% serum added), 28° C., 24 to 96 hours, read-out: Minimum inhibitory concentration (MIC).
[8] abbreviates: n.s. (no serum added), 28° C., 24 to 96 hours.
[9] abbreviates: w.s. (with 30% serum added), 28° C., 24 to 96 hours.
Setting [10] is: n.s. (no serum added), * = 90% inhibition of growth.
Setting [11] is: w.s. (with 30% serum added), * = 90% inhibition of growth.
Setting [12] is: n.s. (no serum added), * = 90% inhibition of growth, read-out: Minimum inhibitory concentration (MIC).

≈ marks a conversion by molar mass, not a printed value. Read-outs that look alike come from different tables or passages of the source. Some results are limits rather than exact numbers.

For the molecule `CC(C)(C)C(=O)C(Oc1ccc(Cl)cc1Cl)n1cncn1` (stereo not shown) [Example 1, 1-[(2',4'-dichloro)-phenoxy]-1-[1',2', 4'-triazolyl-(1')]-3,3-dimethyl-butan-2-one], the MIC is 40 µg/mL (≈ 122 µM) with Candida albicans [1] (setting [6]); 40 µg/mL (≈ 122 µM) in the experiment on Candida albicans [1] (setting [7]); 100 µg/mL (≈ 305 µM) with Aspergillus niger (setting [8]); 100 µg/mL (≈ 305 µM) in the experiment with Aspergillus niger (setting [9]); > 100 µg/mL in the experiment on Penicillium commune (28° C., 24 to 96 hours); 100 µg/mL (≈ 305 µM) in the experiment on Microsporon felineum. The MIC in experiment [2] (setting [8]) and in experiment [2] (setting [9]) was 4 µg/mL (≈ 12.2 µM) in each case. Also, in the experiment with Candida albicans [3], the “Action against Candida albicans” value was “+ (50% survivors on the 6th day after infection)”.

Turning to `CC(C)(C)C(=O)C(Oc1ccc(Cl)cc1)(c1ccccc1)n1cncn1` (stereo not shown) [Example 5, 1-[(4'-chlorophenoxy)]-1-[phenyl]-1-[1',2',4'triazolyl-(1')]-3,3-dimethyl-butan-2-one], the MIC was > 64 µg/mL with Candida albicans [1] (setting [6]); > 64 µg/mL in the experiment on Aspergillus niger (setting [8]); > 64 µg/mL with Aspergillus niger (setting [9]); > 64 µg/mL in the experiment with Penicillium commune (28° C., 24 to 96 hours); > 64 µg/mL in the experiment with Microsporon felineum; 1 µg/mL (≈ 2.7 µM) in experiment [2] (setting [10]). In experiment [2] (setting [11]), the MIC worked out at 32 µg/mL (≈ 86.5 µM).

With `O=C(c1ccc(Cl)cc1)C(Oc1ccc(Cl)cc1Cl)n1cncn1` (stereo not shown) [Example 6], the MIC in the experiment with Candida albicans [1] (setting [12]) is 10 µg/mL (≈ 26.1 µM); in the experiment with Candida albicans [1] (w.s. (with 30% serum added), * = 90% inhibition of growth, read-out: Minimum inhibitory concentration (MIC)), 100 µg/mL (≈ 261 µM); in the experiment with Aspergillus niger (setting [8]), 100 µg/mL (≈ 261 µM); with Aspergillus niger (setting [9]), > 100 µg/mL; in the experiment with Penicillium commune (28° C., 24 to 96 hours) it was > 100 µg/mL; with Microsporon felineum, 40 µg/mL (≈ 105 µM). The MIC in experiment [2] (setting [10]) came to 4 µg/mL (≈ 10.5 µM); in experiment [2] (setting [11]), 10 µg/mL (≈ 26.1 µM). In addition, the “Action against Candida albicans” value in the experiment on Candida albicans [3] is listed as “+ (50% survivors on the 6th day after infection)”.

Consider `CC(C)(C)C(=O)C(Oc1ccc(F)cc1)n1cncn1` (stereo not shown) [Example 9], for which the MIC in the experiment on Candida albicans [1] (setting [6]) was 100 µg/mL (≈ 361 µM); in the experiment with Candida albicans [1] (setting [7]) it was > 64 µg/mL; with Penicillium commune (28° C., 24 to 96 hours), > 64 µg/mL; in experiment [2] (setting [8]), 8 µg/mL (≈ 28.8 µM); in experiment [2] (setting [9]), 32 µg/mL (≈ 115 µM). In addition, the “Action against Candida albicans” value in the experiment with Candida albicans [3] is “++ (60-80% survivors on the 6th day after infection)”.

Regarding `CC(C)(C)C(=O)C(Oc1ccc(-c2ccccc2)cc1)n1cncn1` (stereo not shown) [Example 12], the MIC in the experiment with Candida albicans [1] (setting [12]) was determined as 100 µg/mL (≈ 298 µM); in the experiment with Candida albicans [1] (setting [7]), 100 µg/mL (≈ 298 µM); in the experiment on Aspergillus niger (setting [10]), 40 µg/mL (≈ 119 µM); in the experiment with Aspergillus niger (setting [9]), 100 µg/mL (≈ 298 µM); with Penicillium commune (* = 90% inhibition of growth), 100 µg/mL (≈ 298 µM); with Microsporon felineum, 40 µg/mL (≈ 119 µM). In addition, the MIC in experiment [2] (setting [8]) and in experiment [2] (setting [9]) was < 1 µg/mL in each case. Further, the “Oral action against Trichophyton mentagrophytes” value in experiment [4] was “++”. Besides, the “Action against Trichophyton mentagrophytes” value in experiment [5] was “++++”. Besides, the “Action against Candida albicans” value in the experiment with Candida albicans [3] is “+ (50% survivors on the 6th day after infection)”.

`CC(C)(C)C(=O)C(Oc1ccccc1)n1cncn1` (stereo not shown) [Example 15]: the MIC is > 64 µg/mL in the experiment with Candida albicans [1] (setting [6]); > 64 µg/mL in the experiment on Penicillium commune (28° C., 24 to 96 hours); 32 µg/mL (≈ 123 µM) in experiment [2] (setting [8]); 32 µg/mL (≈ 123 µM) in experiment [2] (setting [9]).

Consider `Cc1ccc(OC(C(=O)C(C)(C)C)n2cncn2)cc1C` (stereo not shown) [Example 17], for which the MIC was 64 µg/mL (≈ 223 µM) in the experiment on Candida albicans [1] (setting [12]); > 64 µg/mL in the experiment on Candida albicans [1] (setting [7]); > 64 µg/mL in the experiment with Penicillium commune (28° C., 24 to 96 hours); 32 µg/mL (≈ 111 µM) in experiment [2] (setting [8]); > 64 µg/mL in experiment [2] (setting [9]).

Take `CC(C)(C)C(=O)C(Oc1cc(Cl)c(Cl)cc1Cl)n1cncn1` (stereo not shown) [Example 20]: the MIC was > 64 µg/mL in the experiment with Candida albicans [1] (setting [6]); > 64 µg/mL in the experiment with Penicillium commune (28° C., 24 to 96 hours); 32 µg/mL (≈ 88.2 µM) in experiment [2] (setting [8]); > 64 µg/mL in experiment [2] (setting [9]).

Consider `CC(C)(C)C(=O)C(Oc1ccc(Cl)cc1Cl)(c1ccccc1)n1cncn1` (stereo not shown) [Example 21], for which the MIC is > 64 µg/mL in the experiment with Candida albicans [1] (setting [6]); > 64 µg/mL in the experiment on Candida albicans [1] (setting [7]); > 64 µg/mL in the experiment on Penicillium commune (28° C., 24 to 96 hours); 8 µg/mL (≈ 19.8 µM) in experiment [2] (setting [8]); 64 µg/mL (≈ 158 µM) in experiment [2] (setting [9]).

`CC(C)(C)C(=O)C(Oc1ccc(Cl)cc1)n1cncn1` (stereo not shown) [Example 27]: the MIC in the experiment on Candida albicans [1] (read-out: Minimum inhibitory concentration (MIC), n.s. (no serum added), 28° C., 24 to 96 hours) is 40 µg/mL (≈ 136 µM); with Candida albicans [1] (read-out: Minimum inhibitory concentration (MIC), w.s. (with 30% serum added), 28° C., 24 to 96 hours), 100 µg/mL (≈ 340 µM); in the experiment with Aspergillus niger it was 100 µg/mL (≈ 340 µM); with Penicillium commune it was > 100 µg/mL; in experiment [2] it was 4 µg/mL (≈ 13.6 µM). Also, the “Minimum inhibitory concentration (MIC)” value in the experiment on Aspergillus niger (setting [9]) was determined as 100 µg/mL (≈ 340 µM); in experiment [2] (setting [9]), 4 µg/mL (≈ 13.6 µM). The “Oral action against Trichophyton quinckeanum” value in experiment [4] is on record as “++++”. The “Action against Trichophyton mentagrophytes” value in experiment [5] is on record as “++”. Also, in the experiment on Candida albicans [3], the “Action against Candida albicans” value was “++++ (>80% survivors on the 6th day after infection)”.

Source of the values: patent US4038404A, “1,2,4-Triazole antimycotic compositions and use thereof” (Bayer Aktiengesellschaft, priority 1972, dated 1977).
